The record followed here is patent US10800792B2, “Inhibitors of Bruton's tyrosine kinase and method of their use” (JANSSEN PHARMACEUTICA NV, priority 2015, dated 2020).

SMILES strings stand for the structures.

Sequence of unphosphorylated-BTK kinase domain (UP-BTK), GST-tagged human BTK (389-659aa) (Q06187 389-659): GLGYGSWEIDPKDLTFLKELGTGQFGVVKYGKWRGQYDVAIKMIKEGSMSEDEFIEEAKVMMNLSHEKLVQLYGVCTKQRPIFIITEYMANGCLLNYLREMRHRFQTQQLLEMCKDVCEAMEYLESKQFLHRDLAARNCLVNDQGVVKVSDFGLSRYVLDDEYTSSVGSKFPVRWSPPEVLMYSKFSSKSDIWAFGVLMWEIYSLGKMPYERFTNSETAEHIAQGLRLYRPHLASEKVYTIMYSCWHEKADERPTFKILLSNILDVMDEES

For one assay, the target named is unphosphorylated-BTK kinase domain (UP-BTK), GST-tagged human BTK (389-659aa) (Homo sapiens (Human), UniProt Q06187). Nature of the assay: BTK kinase Lanthascreen binding assay. The conditions noted are these: Lanthascreen tracer competition, 60 minutes incubation; pIC50 = negative log of the IC50 in molar. Summed up:
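Lanthascreen competition binding; test compound vs fluorescent tracer on unphosphorylated BTK. Output: pIC50 (−log IC50, M).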
On the technique in general: In TR-FRET formats the signal depends on donor and acceptor labels being close together.
Regarding `Cc1cc(OCC(C)C)ncc1N1C(=O)Nc2c(C(=O)N[C@@H]3CCCNC3)sc3nccc1c23` (single isomer, unassigned) [Example 759, (R)-5-(*S)-(6-Isobutoxy-4-methylpyridin-3-yl)-4-oxo-N-(piperidin-3-yl)-4,5-dihydro-3H-1-thia-3,5,8-triazaacenaphthylene-2-carboxamide], the “BTK_I_binding pIC50” value was 6.7.
Still for that read-out and setting: then `Cc1cc(OCC(C)C)ncc1N1C(=O)Nc2c(C(=O)N[C@@H]3CCCNC3)sc3nccc1c23` (single isomer, unassigned) [Example 760, (R)-5-(*R)-(6-Isobutoxy-4-methylpyridin-3-yl)-4-oxo-N-(piperidin-3-yl)-4,5-dihydro-3H-1-thia-3,5,8-triazaacenaphthylene-2-carboxamide], with below 6.
`Cc1cc(OC2CCCC2)ncc1N1C(=O)Nc2c(C(=O)N[C@@H]3CCCNC3)sc3nccc1c23` (single isomer, unassigned) [Example 761, (R)-5-(*S)-(6-(Cyclopentyloxy)-4-methylpyridin-3-yl)-4-oxo-N-(piperidin-3-yl)-4,5-dihydro-3H-1-thia-3,5,8-triazaacenaphthylene-2-carboxamide]: the “BTK_I_binding pIC50” value was 7.1.
With `Cc1cc(OC2CCCC2)ncc1N1C(=O)Nc2c(C(=O)N[C@@H]3CCCNC3)sc3nccc1c23` (single isomer, unassigned) [Example 762, (R)-5-(*R)-(6-(Cyclopentyloxy)-4-methylpyridin-3-yl)-4-oxo-N-(piperidin-3-yl)-4,5-dihydro-3H-1-thia-3,5,8-triazaacenaphthylene-2-carboxamide], the “BTK_I_binding pIC50” value is reported as below 6.
Consider `C=CC(=O)N1CCC[C@@H](NC(=O)c2sc3nccc4c3c2NC(=O)N4c2cnc(OC3CCCC3)cc2C)C1` (single isomer, unassigned) [Example 768, (R)—N-(1-Acryloylpiperidin-3-yl)-5-(*S)-(6-(cyclopentyloxy)-4-methylpyridin-3-yl)-4-oxo-4,5-dihydro-3H-1-thia-3,5,8-triazaacenaphthylene-2-carboxamide], for which the “BTK_I_binding pIC50” value is listed as 8.2.
Take `C=CC(=O)N1CCC[C@@H](NC(=O)c2sc3nccc4c3c2NC(=O)N4c2cnc(OC3CCCC3)cc2C)C1` (single isomer, unassigned) [Example 769, (R)—N-(1-Acryloylpiperidin-3-yl)-5-(*R)-(6-(cyclopentyloxy)-4-methylpyridin-3-yl)-4-oxo-4,5-dihydro-3H-1-thia-3,5,8-triazaacenaphthylene-2-carboxamide]: the “BTK_I_binding pIC50” value was found to be 6.2.
For the molecule `Cc1cc(Oc2ccccc2)ccc1N1C(=O)Nc2c(C(=O)N[C@@H]3CCCN(C(=O)C(C#N)=CC4(C)COC4)C3)sc3nccc1c23` (single isomer, unassigned) [Example 782, (R,EZ)—N-(1-(2-Cyano-3-(3-methyloxetan-3-yl)acryloyl)piperidin-3-yl)-5-(*S)-(2-methyl-4-phenoxyphenyl)-4-oxo-4,5-dihydro-3H-1-thia-3,5,8-triazaacenaphthylene-2-carboxamide], the “BTK_I_binding pIC50” value was 7.7.
Turning to `C=CC(=O)N1CCC[C@@H](NC(=O)c2sc3nccc4c3c2NC(=O)N4c2cnc(OC(C)C)cc2C)C1` (single isomer, unassigned) [Example 789, (R)—N-(1-Acryloylpiperidin-3-yl)-5-(*S)-(6-isopropoxy-4-methylpyridin-3-yl)-4-oxo-4,5-dihydro-3H-1-thia-3,5,8-triazaacenaphthylene-2-carboxamide], the “BTK_I_binding pIC50” value stood at 8.1.
Consider `Cc1nc(Oc2ccccc2)ccc1N1C(=O)Nc2c(C(=O)N[C@@H]3CCOC3)sc3nccc1c23` (single isomer, unassigned) [Example 793, (R)-5-(*S)-(2-Methy-6-phenoxypyridin-3-yl)-4-oxo-N-(tetrahydrofuran-3-yl)-4,5-dihydro-3H-1-thia-3,5,8-triazaacenaphthylene-2-carboxamide], for which the “BTK_I_binding pIC50” value was 6.8.
On the same count and under the same terms, under `Cc1cc(OC(C)C)ncc1N1C(=O)Nc2c(C(=O)N[C@@H]3CCCNC3)sc3nccc1c23` (single isomer, unassigned) [Example 794, (R)-5-(*S)-(6-Isopropoxy-4-methylpyridin-3-yl)-4-oxo-N-(piperidin-3-yl)-4,5-dihydro-3H-1-thia-3,5,8-triazaacenaphthylene-2-carboxamide] stands 6.5; under `Cc1cc(OC2CCCC2)ncc1N1C(=O)Nc2c(C(=O)N[C@@H]3CCNC3)sc3nccc1c23` (single isomer, unassigned) [Example 797, (R)-5-(*S)-(6-(Cyclopentyloxy)-4-methylpyridin-3-yl)-4-oxo-N-(pyrrolidin-3-yl)-4,5-dihydro-3H-1-thia-3,5,8-triazaacenaphthylene-2-carboxamide], 6.3.
The same measure, in the same setting: under `Cc1cc(OCC(C)C)ncc1N1C(=O)Nc2c(C(=O)N[C@@H]3CCNC3)sc3nccc1c23` (single isomer, unassigned) [Example 798, (R)-5-(*S)-(6-Isobutoxy-4-methylpyridin-3-yl)-4-oxo-N-(pyrrolidin-3-yl)-4,5-dihydro-3H-1-thia-3,5,8-triazaacenaphthylene-2-carboxamide] stands 6.3; under `C=CC(=O)N1CCC[C@@H](NC(=O)c2sc3nccc4c3c2NC(=O)N4c2cnc(OC(C)C)cc2C)C1` (single isomer, unassigned) [Example 804, (R)—N-(1-Acryloylpiperidin-3-yl)-5-(*R)-(6-isopropoxy-4-methylpyridin-3-yl)-4-oxo-4,5-dihydro-3H-1-thia-3,5,8-triazaacenaphthylene-2-carboxamide], 6.1.
Take `Cc1cc(OC(C)C)ncc1N1C(=O)Nc2c(C(=O)N[C@@H]3CCCNC3)sc3nccc1c23` (single isomer, unassigned) [Example 806, (R)-5-(*R)-(6-Isopropoxy-4-methylpyridin-3-yl)-4-oxo-N-(piperidin-3-yl)-4,5-dihydro-3H-1-thia-3,5,8-triazaacenaphthylene-2-carboxamide]: the “BTK_I_binding pIC50” value is on record as below 6.
Turning to `C=CC(=O)N1CCC[C@@H](NC(=O)c2sc3nccc4c3c2NC(=O)N4c2ccc(OC3CCOCC3)cc2C)C1` (single isomer, unassigned) [Example 814, (R)—N-(1-Acryloylpiperidin-3-yl)-5-(*R)-(2-methyl-4-((tetrahydro-2H-pyran-4-yl)oxy)phenyl)-4-oxo-4,5-dihydro-3H-1-thia-3,5,8-triazaacenaphthylene-2-carboxamide], the “BTK_I_binding pIC50” value is given as below 6.
As for `C=CS(=O)(=O)N1CC[C@@H](NC(=O)c2sc3nccc4c3c2NC(=O)N4c2ccc(Oc3ccccc3)cc2C)C1` (single isomer, unassigned) [Example 834, (R)-5-(*S)-(2-Meth-4-phenoxyphenyl)-4-oxo-N-(1-(vinylsulfonyl)pyrrolidin-3-yl)-4,5-dihydro-3H-1-thia-3,5,8-triazaacenaphthylene-2-carboxamide], the “BTK_I_binding pIC50” value was 8.0.

The same assay, now with this note: Lanthascreen tracer competition, 60 minutes incubation; pIC50 = negative log of the IC50 in molar; read-out: BTK_I_binding pIC50 (converted).
Turning to `C=CC(=O)N1CCC[C@@H](NC(=O)c2sc3nccc4c3c2NC(=O)N4c2ccc(OC3CCOCC3)cc2C)C1` (single isomer, unassigned) [Example 813, (R)—N-(1-Acryloylpiperidin-3-yl)-5-(*S)-(2-methyl-4-((tetrahydro-2H-pyran-4-yl)oxy)phenyl)-4-oxo-4,5-dihydro-3H-1-thia-3,5,8-triazaacenaphthylene-2-carboxamide], the IC50 was above 1000 nM.
